Like-named read-outs stand apart in the source and are kept apart here. Starred links: 1 amine or outer side, 2 acyl side, 3 side chain; linkers in the order of their positions; H or OH if unused. Positions of bridges follow the written chain, without caps; N, C: chain ends. Non-standard residues stand in square brackets, D forms with d. Residues, ends and D or L forms follow the SMILES beside them. *: point of attachment. NMeF = CN[C@@H](Cc1ccccc1)C(=O)O; NMeGABA = CN(CCCC(=O)[*:2])[*:1]; NMeI = CC[C@H](C)[C@H](NC)C(=O)O; NMeT = CN[C@H](C(=O)O)[C@@H](C)O; hPhe = N[C@@H](CCc1ccccc1)C(=O)O; NMeβAla = CN(CCC(=O)[*:2])[*:1]; NMeD = CN[C@@H](CC(=O)O)C(=O)O; NMeL = CN[C@@H](CC(C)C)C(=O)O; dNMeV = CN[C@@H](C(=O)O)C(C)C; NMeV = CN[C@H](C(=O)O)C(C)C; NMeAbu = CC[C@H](NC)C(=O)O; NMeA = CN[C@@H](C)C(=O)O; Piperidide = C1CCN(*)CC1; Abu = CC[C@H](N)C(=O)O; NBuGly = CCCCNCC(=O)O; βAla = NCCC(=O)O; Sar = CNCC(=O)O; tBu = CC(C)(C)*
Experiments:
[1] = Metabolic stability test: liver microsomal stability assay; assay type: in vitro ADME, mouse; details: for microsomal CLint at 1 µM: male, pH 7.4, presence of NADPH, read-out: Mouse Hepatic Microsome CLh,int NADPH(+)
Caco-2 cells = test: Membrane permeability test using Caco-2 cells with preincubation; assay type: in vitro ADME
[2] = as above; assay type: in vitro ADME; details: Caco-2
[3] = mouse liver microsomes 0.5 mg protein/mL, compound 1 µM
[4] = mouse liver microsomes 0.5 mg protein/mL, compound 1 µM, absence of NADPH
[5] = Caco-2 cells, preincubation 20 to 24 hours, apical FaSSIF/HBSS 1% DMSO pH 6.0, basal HBSS 4% BSA pH 7.4, basal sample at 180 minutes
[6] = preincubation 20 to 24 hours, Apical FaSSIF/HBSS pH 6.0, Basal HBSS 4% BSA pH 7.4, 180 minutes, read-out: Caco2 Papp

SMILES	microsomal CLint at 1 µM [1, 3]	Mouse Hepatic Microsome CLh,int NADPH(-) [1, 4]	Caco2 Papp (10^-6 cm/sec) (Caco-2 cells; [5])	Papp A→B [2, 6]	Mouse Hepatic Microsome CLh,int NADPH(-) [1]	Caco2 Papp (10^-6 cm/sec) (Caco-2 cells; Caco-2)	Papp A→B [2]
CC(C)C[C@@H]1NC(=O)[C@H](CC(C)C)N(C)C(=O)[C@H]([C@@H](C)O)NC(=O)[C@H](C(C)C)N(C)C(=O)[C@H](Cc2ccccc2)N(C)C(=O)[C@@H](C(C)C)NC(=O)C[C@@H](C(=O)N2CCCCC2)N(C)C(=O)[C@H](C)N(C)C(=O)[C@H](Cc2ccccc2)N(C)C(=O)[C@H](C)NC(=O)[C@H](COC(C)(C)C)NC(=O)[C@H](CC(C)C)N(C)C(=O)[C@H](C(C)C)NC(=O)CN(C)C1=O [pd086] ([dV][NMeF][NMeV]T[NMeL]L[Sar]V[NMeL]S(tBu)A[NMeF][NMeA][NMeD]-Piperidide; lactam N-14)	20.1 µL/min/mg	20.0 µL/min/mg Protein	0.06 10^-6 cm/sec	0.06 ×10⁻⁶ cm/s			
CCCCN1CC(=O)N(C)[C@@H](CC(C)C)C(=O)N[C@@H]([C@@H](C)O)C(=O)N(C)[C@@H](C)C(=O)N2CCC[C@H]2C(=O)N[C@@H](CCc2ccccc2)C(=O)N[C@@H]([C@@H](C)CC)C(=O)N(C)[C@H](C(=O)N2CCCCC2)CC(=O)N(C)[C@@H](CC(C)C)C(=O)N[C@@H](COC(C)(C)C)C(=O)N(C)[C@@H](C(C)C)C(=O)N[C@@H]([C@@H](C)CC)C(=O)N2CCC[C@H]2C(=O)N[C@@H](C(C)C)C1=O [pd087] ([NMeL]S(tBu)[NMeV]IPV[NBuGly][NMeL]T[NMeA]P[hPhe]I[NMeD]-Piperidide; lactam N-14)	31.8 µL/min/mg	29.0 µL/min/mg Protein	<0.07 10^-6 cm/sec	< 0.07 ×10⁻⁶ cm/s			
CC[C@@H]1NC(=O)[C@H](C(C)C)N(C)C(=O)[C@H](C(C)C)NC(=O)[C@H](C)N(C)C(=O)CCN(C)C(=O)[C@H](CCc2ccccc2)NC(=O)[C@H](CC(C)C)N(C)C(=O)[C@H]([C@@H](C)CC)NC(=O)CN(C)C(=O)C[C@@H](C(=O)N2CCCCC2)N(C)C(=O)[C@H](CC(C)C)NC(=O)[C@H](CC(C)C)N(C)C(=O)[C@H]([C@@H](C)O)NC(=O)[C@H](Cc2ccccc2)N(C)C1=O [pd088] ([Sar]I[NMeL][hPhe][NMeβAla][NMeA]V[NMeV][Abu][NMeF]T[NMeL]L[NMeD]-Piperidide; lactam N-14)	20.9 µL/min/mg	24.2 µL/min/mg Protein	0.11 10^-6 cm/sec	0.11 ×10⁻⁶ cm/s			
CC[C@H](C)[C@@H]1NC(=O)CN(C)C(=O)C[C@@H](C(=O)N2CCCCC2)N(C)C(=O)[C@H](C(C)C)NC(=O)[C@H](Cc2ccccc2)N(C)C(=O)[C@H](CC(C)C)N(C)C(=O)[C@H]([C@@H](C)O)NC(=O)[C@H](CC(C)C)N(C)C(=O)[C@H](CC(C)C)NC(=O)[C@H](C(C)C)N(C)C(=O)[C@H](C)N(C)C(=O)[C@H](CC(C)C)N(C)C(=O)[C@H](CCc2ccccc2)NC(=O)[C@H](CC(C)C)N(C)C1=O [pd092] ([Sar]I[NMeL][hPhe][NMeL][NMeA][NMeV]L[NMeL]T[NMeL][NMeF]V[NMeD]-Piperidide; lactam N-14)	22 µL/min/mg	26.3 µL/min/mg Protein	0.09 10^-6 cm/sec	0.09 ×10⁻⁶ cm/s			
CC[C@H]1C(=O)N(C)CC(=O)N(C)[C@@H](CC(C)C)C(=O)N[C@@H](COC(C)(C)C)C(=O)N(C)[C@@H](C)C(=O)N(C)[C@@H](Cc2ccccc2)C(=O)N(C)CC(=O)N(C)[C@H](C(=O)N2CCCCC2)CC(=O)N[C@H](C(C)C)C(=O)N(C)[C@@H](Cc2ccccc2)C(=O)NCCC(=O)N(C)[C@@H](C(C)C)C(=O)N[C@@H]([C@@H](C)O)C(=O)N(C)[C@@H](CC(C)C)C(=O)N1C [pd094] ([dV][NMeF][βAla][NMeV]T[NMeL][NMeAbu][Sar][NMeL]S(tBu)[NMeA][NMeF][Sar][NMeD]-Piperidide; lactam N-14)	22.5 µL/min/mg	16.7 µL/min/mg Protein	<0.13 10^-6 cm/sec	< 0.13 ×10⁻⁶ cm/s			
CC[C@H](C)[C@H]1C(=O)N(C)[C@@H](CC(C)C)C(=O)N[C@@H](CCc2ccccc2)C(=O)N(C)[C@@H](CC(C)C)C(=O)N(C)CCC(=O)N(C)[C@@H](C(C)C)C(=O)N[C@@H](CC(C)C)C(=O)N(C)[C@@H](CC(C)C)C(=O)N[C@@H]([C@@H](C)O)C(=O)N(C)CCC(=O)N(C)[C@@H](Cc2ccccc2)C(=O)N[C@@H](C(C)C)C(=O)N(C)[C@H](C(=O)N2CCCCC2)CC(=O)N(C)CC(=O)N1C [pd096] ([Sar][NMeI][NMeL][hPhe][NMeL][NMeβAla][NMeV]L[NMeL]T[NMeβAla][NMeF]V[NMeD]-Piperidide; lactam N-14)					18.2 µL/min/mg Protein	0.51 10^-6 cm/sec	0.51 ×10⁻⁶ cm/s
CC(C)C[C@@H]1NC(=O)[C@@H]2CCCN2C(=O)[C@H](C(C)C)N(C)C(=O)[C@H](C)NC(=O)[C@H](CC(C)C)N(C)C(=O)[C@@H](C(C)C)NC(=O)C[C@@H](C(=O)N2CCCCC2)NC(=O)[C@H](C(C)C)N(C)C(=O)[C@H](Cc2ccccc2)N(C)C(=O)[C@H](CC(C)C)NC(=O)[C@H](COC(C)(C)C)NC(=O)[C@H](CC(C)C)N(C)C(=O)CN(C)C1=O [pd097] ([dV][NMeL]A[NMeV]PL[Sar][NMeL]S(tBu)L[NMeF][NMeV]D-Piperidide; lactam N-13)	20.4 µL/min/mg	18.8 µL/min/mg Protein	0.54 10^-6 cm/sec	0.54 ×10⁻⁶ cm/s			
CC[C@H](C)[C@@H]1NC(=O)[C@H](C)NC(=O)[C@H](CC(C)C)N(C)C(=O)[C@H](COC(C)(C)C)NC(=O)[C@H](CC(C)C)N(C)C(=O)[C@@H]2CCCN2C(=O)[C@H](Cc2ccccc2)NC(=O)[C@H]([C@@H](C)CC)N(C)C(=O)[C@H](CC(C)C)N(C)C(=O)CCCN(C)C(=O)C[C@@H](C(=O)N2CCCCC2)NC(=O)[C@H](Cc2ccccc2)N(C)C(=O)[C@H](CC)N(C)C1=O [pd098] ([NMeGABA][NMeL][NMeI]FP[NMeL]S(tBu)[NMeL]AI[NMeAbu][NMeF]D-Piperidide; lactam N-13)	44.5 µL/min/mg	37.8 µL/min/mg Protein	0.57 10^-6 cm/sec	0.57 ×10⁻⁶ cm/s			

Now from value to compound, other results behind:

microsomal CLint at 1 µM [1, 3]	Mouse Hepatic Microsome CLh,int NADPH(-) [1, 4]	Caco2 Papp (10^-6 cm/sec) (Caco-2 cells; [5])	Papp A→B [2, 6]	SMILES	Mouse Hepatic Microsome CLh,int NADPH(-) [1]	Caco2 Papp (10^-6 cm/sec) (Caco-2 cells; Caco-2)	Papp A→B [2]
29 µL/min/mg	29.8 µL/min/mg Protein	<0.11 10^-6 cm/sec	< 0.11 ×10⁻⁶ cm/s	CC[C@@H]1NC(=O)[C@H](Cc2ccccc2)N(C)C(=O)[C@H](COC(C)(C)C)NC(=O)[C@H](CC(C)C)N(C)C(=O)[C@H](C)N(C)C(=O)[C@H]([C@@H](C)O)NC(=O)[C@H](CC(C)C)N(C)C(=O)[C@H](C(C)C)N(C)C(=O)[C@H](CCc2ccccc2)NC(=O)[C@H](CC(C)C)N(C)C(=O)[C@@H](C(C)C)N(C)C(=O)C[C@@H](C(=O)N2CCCCC2)N(C)C(=O)[C@H](CC(C)C)NC(=O)[C@H](C(C)C)N(C)C1=O [pd089] ([dNMeV][NMeL][hPhe][NMeV][NMeL]T[NMeA][NMeL]S(tBu)[NMeF][Abu][NMeV]L[NMeD]-Piperidide; lactam N-14)			
45 µL/min/mg	23.9 µL/min/mg Protein	<0.12 10^-6 cm/sec	< 0.12 ×10⁻⁶ cm/s	CC[C@@H]1NC(=O)[C@H](CC(C)C)N(C)C(=O)[C@H]([C@@H](C)O)NC(=O)[C@H](C(C)C)N(C)C(=O)[C@H](C)NC(=O)[C@H](Cc2ccccc2)N(C)C(=O)[C@@H](C(C)C)NC(=O)C[C@@H](C(=O)N2CCCCC2)N(C)C(=O)CN(C)C(=O)[C@H](Cc2ccccc2)N(C)C(=O)[C@H](C)N(C)C(=O)[C@H](COC(C)(C)C)NC(=O)[C@H](CC(C)C)N(C)C(=O)CN(C)C1=O [pd090] ([dV][NMeF]A[NMeV]T[NMeL][Abu][Sar][NMeL]S(tBu)[NMeA][NMeF][Sar][NMeD]-Piperidide; lactam N-14)			
39.4 µL/min/mg	36.1 µL/min/mg Protein	0.11 10^-6 cm/sec	0.11 ×10⁻⁶ cm/s	CC[C@@H]1NC(=O)[C@H](Cc2ccccc2)N(C)C(=O)[C@H](COC(C)(C)C)NC(=O)[C@H](CC(C)C)N(C)C(=O)[C@H](CC(C)C)NC(=O)[C@H](C)N(C)C(=O)C[C@@H](C(=O)N2CCCCC2)N(C)C(=O)[C@H](CC(C)C)N(C)C(=O)[C@H]([C@@H](C)CC)NC(=O)[C@H](Cc2ccccc2)N(C)C(=O)[C@H]([C@@H](C)O)N(C)C(=O)[C@H](CC)N(C)C(=O)[C@H](CC(C)C)NC(=O)CN(C)C1=O [pd091] ([NMeA]L[NMeL]S(tBu)[NMeF][Abu][Sar]L[NMeAbu][NMeT][NMeF]I[NMeL][NMeD]-Piperidide; lactam N-14)			
26.8 µL/min/mg	20.4 µL/min/mg Protein	<0.14 10^-6 cm/sec	< 0.14 ×10⁻⁶ cm/s	CC[C@H]1C(=O)N(C)[C@@H](C(C)C)C(=O)N[C@@H](CC(C)C)C(=O)N(C)[C@H](C(=O)N2CCCCC2)CC(=O)N(C)[C@H](C(C)C)C(=O)N(C)[C@@H](CC(C)C)C(=O)N[C@@H](CCc2ccccc2)C(=O)N(C)[C@@H](C(C)C)C(=O)N(C)[C@@H](CC(C)C)C(=O)N[C@@H]([C@@H](C)O)C(=O)N(C)[C@@H](C)C(=O)N(C)[C@@H](CC(C)C)C(=O)N[C@@H](COC(C)(C)C)C(=O)N(C)[C@@H](Cc2ccccc2)C(=O)N1C [pd093] ([dNMeV][NMeL][hPhe][NMeV][NMeL]T[NMeA][NMeL]S(tBu)[NMeF][NMeAbu][NMeV]L[NMeD]-Piperidide; lactam N-14)			
25.6 µL/min/mg	29.2 µL/min/mg Protein	<0.10 10^-6 cm/sec	< 0.1 ×10⁻⁶ cm/s	CC[C@H](C)[C@@H]1NC(=O)[C@H](Cc2ccccc2)N(C)C(=O)[C@H]([C@@H](C)O)N(C)C(=O)[C@H]([C@@H](C)CC)N(C)C(=O)[C@H](CC(C)C)NC(=O)CN(C)C(=O)[C@H](CC)N(C)C(=O)[C@H](Cc2ccccc2)N(C)C(=O)[C@H](COC(C)(C)C)NC(=O)[C@H](CC(C)C)N(C)C(=O)[C@H](CC(C)C)NC(=O)[C@H](C)N(C)C(=O)C[C@@H](C(=O)N2CCCCC2)N(C)C(=O)[C@H](CC(C)C)N(C)C1=O [pd095] ([NMeA]L[NMeL]S(tBu)[NMeF][NMeAbu][Sar]L[NMeI][NMeT][NMeF]I[NMeL][NMeD]-Piperidide; lactam N-14)			
